Experimental data as given in patent publication US8808702B2, “Sulfide, sulfoxide and sulfone chalcone analogues, derivatives thereof and therapeutic uses thereof” (Temple University-of the Commonwealth System of Higher …, priority 2006, dated 2014).
Where two headings read alike, the source gives them in different places.

Legend:
[1] = test system: K562 (chronic myelogenous leukaemia); experiment: Effect of compounds on tumor cell lines (assay of Latham et al.), K562; format: cell-based; conditions: K562 cells, read-out: K 562 potency (IC50)
Procedure: (§1) The effect of the compounds of the invention on tumor cells was determined by the assay described by Latham et al., Oncogene 12:827-837 (1996). Tumor cells K562 (chronic myelogenous leukaemia) or DU145 (prostate cancer) were plated in 12-well dishes at a cell density of 2.5×10^4 cells well. The plated cells were treated 24 hours later with a compound of the invention dissolved in DMSO at multiple concentrations ranging from 1 μM to 100 μM. The plates were examined 96 hours later under an inverted microscope, Olympus CK-2 using an 10× objective, and compound activity was noted by physical observation. When necessary, the total number of viable cells was determined by trypsinizing the wells and counting the number of viable cells, as determined by trypan blue exclusion, using a hemacytometer.
(§2) The representative compounds listed in Tables 1-5 are shown by way of illustration, and are not intended to limit the scope of the invention. The compounds are prepared and tested by methods based on those described above, except that the compound of Table 5 was dissolved in DMSO at multiple concentrations ranging from 0.1 μM to 100 μM

DU145 (prostate cancer) = experiment: Effect of compounds on tumor cell lines (assay of Latham et al.), DU145; format: cell-based; conditions: DU145 cells, read-out: DU 145 potency (IC50)
Procedure: as §1, §2

[2] = 96 hours after treatment, 1 μM to 100 μM
[3] = Table 1, examined 96 hours after treatment, 1 μM to 100 μM in DMSO

O=C(C(=Cc1ccc(O)cc1)SCc1ccc(Cl)cc1)c1ccc(Br)cc1 [Example 221]
IC50 [1, 2]: 1 to 10 µM | IC50 (DU145 (prostate cancer); [2]): 10 to 25 µM

O=C(O)c1ccc(C(=O)/C(=C\c2ccc(O)c([N+](=O)[O-])c2)SCc2ccc(Br)cc2)cc1 [Example 181]
IC50 [1, 2]: 50 to 100 µM | IC50 (DU145 (prostate cancer); [2]): 50 to 100 µM

O=C(C(=Cc1ccc(Cl)cc1)SCc1ccc(F)cc1)c1ccc(Cl)cc1 [Example 256]
IC50 [1, 2]: 1 to 10 µM | IC50 (DU145 (prostate cancer); [2]): 10 to 25 µM

COc1ccccc1C=C(SCc1ccc(Cl)cc1)C(=O)c1ccc(Br)cc1 [Example 198]
IC50 [1, 2]: 10 to 25 µM | IC50 (DU145 (prostate cancer); [2]): 1 to 10 µM

Cc1ccc(CSC(=Cc2c[nH]c3ccc(Cl)cc23)C(=O)c2ccc(Cl)cc2)cc1 [Example 296]
IC50 [1, 2]: 1 to 10 µM | IC50 (DU145 (prostate cancer); [2]): 1 to 10 µM

CCN(CC)CCNC(=O)c1ccc(C(=O)C(=Cc2ccc(F)c([N+](=O)[O-])c2)SCc2ccc(Br)cc2)cc1 [Example 313]
IC50 [1, 2]: ≤ 1 µM | IC50 (DU145 (prostate cancer); [2]): 1 to 10 µM

Cc1ccc(CSC(=Cc2ccc(Br)cc2)C(=O)c2ccc(Cl)cc2)cc1 [Example 286]
IC50 [1, 2]: 1 to 10 µM | IC50 (DU145 (prostate cancer); [2]): 10 to 25 µM

O=C(C(=Cc1ccc(F)c([N+](=O)[O-])c1)SCc1ccc(Br)cc1)c1ccc(F)cc1 [Example 318]
IC50 [1, 2]: ≤ 1 µM | IC50 (DU145 (prostate cancer); [2]): ≤ 1 µM

Cc1ccc(CSC(=Cc2ccccc2F)C(=O)c2ccc(Br)cc2)cc1 [Example 277]
IC50 [1, 2]: 1 to 10 µM | IC50 (DU145 (prostate cancer); [2]): 10 to 25 µM

O=C(O)c1ccc(C=C(SCc2ccc(Cl)cc2)C(=O)c2ccc(C(=O)O)cc2)cc1 [Example 323]
IC50 [1, 2]: > 100 µM | IC50 (DU145 (prostate cancer); [2]): > 100 µM

Cc1ccsc1C=C(SCc1ccc(Cl)cc1)C(=O)c1ccc(Br)cc1 [Example 205]
IC50 [1, 2]: 25 to 50 µM | IC50 (DU145 (prostate cancer); [2]): 25 to 50 µM

Cc1ccc(SC(=Cc2ccc(Cl)cc2)C(=O)c2ccc(Cl)cc2)cc1 [Example 91]
IC50 [1, 3]: 1 to 10 µM | IC50 (DU145 (prostate cancer); [3]): 25 to 50 µM

O=C(/C(=C\c1ccc(F)c([N+](=O)[O-])c1)SCc1ccc(F)cc1)c1ccc(OCCCN2CCOCC2)cc1 [Example 340]
IC50 [1, 2]: 1 to 10 µM | IC50 (DU145 (prostate cancer); [2]): 1 to 10 µM

O=C(C(=Cc1ccc(Cl)cc1)SCc1ccccc1Cl)c1ccc(Cl)cc1 [Example 130]
IC50 [1, 2]: 1 to 10 µM | IC50 (DU145 (prostate cancer); [2]): 10 to 25 µM

COc1ccc(C=C(SCc2ccc(Cl)cc2)C(=O)c2ccc(Br)cc2)cc1 [Example 226]
IC50 [1, 2]: 1 to 10 µM | IC50 (DU145 (prostate cancer); [2]): 25 to 50 µM

O=C(C(=Cc1c[nH]c2ccc(Cl)cc12)SCc1ccc(F)cc1)c1ccc(Br)cc1 [Example 267]
IC50 [1, 2]: 1 to 10 µM | IC50 (DU145 (prostate cancer); [2]): 1 to 10 µM

COc1ccc(C(=O)/C(=C\c2ccc(O)c([N+](=O)[O-])c2)SCc2ccc(Br)cc2)cc1 [Example 183]
IC50 [1, 2]: 10 to 25 µM | IC50 (DU145 (prostate cancer); [2]): 10 to 25 µM

O=C(C(=Cc1ccc(Br)cc1)SCc1ccc(Cl)cc1)c1ccc(Br)cc1 [Example 214]
IC50 [1, 2]: 1 to 10 µM | IC50 (DU145 (prostate cancer); [2]): 1 to 10 µM

COC(=O)c1ccc(C(=O)/C(=C\c2ccc(F)c([N+](=O)[O-])c2)SCc2ccc(Br)cc2)cc1 [Example 441, (E)-methyl-4-(2-(4-bromobenzylthio)-3-(4-fluoro-3-nitrophenyl)acryloyl)benzoate]
IC50 ([1]; Homo sapiens, Table 5, examined 96 hours after treatment, 0.1 μM to 100 μM in DMSO): ≤ 1 µM | IC50 (DU145 (prostate cancer); Homo sapiens, DU-145, Table 5, examined 96 hours after treatment, 0.1 μM to 100 μM in DMSO): ≤ 1 µM

Cc1ccc(C)c(C=C(SCc2ccc(Cl)cc2)C(=O)c2ccc(Cl)cc2)c1 [Example 197]
IC50 [1, 2]: 10 to 25 µM | IC50 (DU145 (prostate cancer); [2]): 10 to 25 µM

O=C(O)c1ccc(C(=O)C(=Cc2ccc(Br)c([N+](=O)[O-])c2)SCc2ccc(F)cc2)cc1 [Example 252]
IC50 [1, 2]: ≤ 1 µM | IC50 (DU145 (prostate cancer); [2]): 1 to 10 µM

CN(C)c1ccc(C=C(SCc2ccc(Cl)cc2Cl)C(=O)c2ccc(Cl)cc2)cc1 [Example 120]
IC50 [1, 2]: > 100 µM | IC50 (DU145 (prostate cancer); [2]): 50 to 100 µM

O=C(/C(=C\c1cc(Cl)c(O)c(Cl)c1)S(=O)(=O)Cc1ccc(Br)cc1)c1ccc(Br)cc1 [Example 369]
IC50 ([1]; Homo sapiens, Table 4, examined 96 hours after treatment, 1 μM to 100 μM in DMSO): 25 to 50 µM | IC50 (DU145 (prostate cancer); Homo sapiens, DU-145, Table 4, examined 96 hours after treatment, 1 μM to 100 μM in DMSO): 25 to 50 µM

O=C(C(=Cc1ccc(F)c([N+](=O)[O-])c1)SCc1ccc(Br)cc1)c1ccc(C(=O)N2CCN(c3ccc(C(F)(F)F)cn3)CC2)cc1 [Example 315]
IC50 [1, 2]: 1 to 10 µM | IC50 (DU145 (prostate cancer); [2]): 1 to 10 µM

CC(=O)Oc1ccc(C=C(Sc2ccc(C)cc2)C(=O)c2ccc(Cl)cc2)cc1 [Example 86]
IC50 [1, 3]: 1 to 10 µM | IC50 (DU145 (prostate cancer); [3]): 10 to 25 µM

Cc1ccc(SC(=Cc2ccc(Br)cc2)C(=O)c2ccc(Cl)cc2)cc1 [Example 88]
IC50 [1, 3]: 50 to 100 µM | IC50 (DU145 (prostate cancer); [3]): 25 to 50 µM

Cc1ccc(SC(=Cc2ccc(O)c([N+](=O)[O-])c2)C(=O)c2ccc(Cl)cc2)cc1 [Example 96]
IC50 [1, 3]: 25 to 50 µM | IC50 (DU145 (prostate cancer); [3]): 10 to 25 µM

Cc1ccc(CSC(=Cc2ccc(N(C)C)cc2)C(=O)c2ccc(Cl)cc2)cc1 [Example 285]
IC50 [1, 2]: 10 to 25 µM | IC50 (DU145 (prostate cancer); [2]): 10 to 25 µM

COc1ccc(C=C(Sc2ccc(F)cc2)C(=O)c2ccc(OC)cc2)cc1 [Example 59]
IC50 [1, 3]: 1 to 10 µM | IC50 (DU145 (prostate cancer); [3]): 25 to 50 µM

O=C(O)c1ccc(C(=O)C(=Cc2ccc(N3CCN(Cc4ccccc4)CC3)c([N+](=O)[O-])c2)SCc2ccc(F)cc2)cc1 [Example 328]
IC50 [1, 2]: 1 to 10 µM | IC50 (DU145 (prostate cancer); [2]): 1 to 10 µM

O=C(C(=Cc1ccc([N+](=O)[O-])cc1)SCc1ccc(Br)cc1)c1ccc(Br)cc1 [Example 320]
IC50 [1, 2]: 1 to 10 µM | IC50 (DU145 (prostate cancer); [2]): 1 to 10 µM

COc1cc(OC)c(C=C(SCc2ccc(F)cc2)C(=O)c2ccc(Cl)cc2)c(OC)c1 [Example 234]
IC50 [1, 2]: 10 to 25 µM | IC50 (DU145 (prostate cancer); [2]): 10 to 25 µM

O=C(C(=Cc1ccc(C(F)(F)F)cc1)SCc1ccc(Cl)cc1)c1ccc(Cl)cc1 [Example 327]
IC50 [1, 2]: 1 to 10 µM | IC50 (DU145 (prostate cancer); [2]): 1 to 10 µM

Cc1ccc(SC(=Cc2cnc3ccccc3c2)C(=O)c2ccc(Cl)cc2)cc1 [Example 85]
IC50 [1, 3]: > 100 µM | IC50 (DU145 (prostate cancer); [3]): > 100 µM

Cc1ccc(CSC(=Cc2ccc(O)c(O)c2O)C(=O)c2ccc(Cl)cc2)cc1 [Example 270]
IC50 [1, 2]: 50 to 100 µM | IC50 (DU145 (prostate cancer); [2]): 50 to 100 µM

O=C(C(=Cc1cccnc1)SCc1ccc(Cl)cc1)c1ccc(Cl)cc1 [Example 322]
IC50 [1, 2]: 1 to 10 µM | IC50 (DU145 (prostate cancer); [2]): 1 to 10 µM

CSc1ccc(C=C(SCc2ccc(C)cc2)C(=O)c2ccc(Br)cc2)cc1 [Example 293]
IC50 [1, 2]: 25 to 50 µM | IC50 (DU145 (prostate cancer); [2]): > 100 µM

COc1ccc(C=C(SCc2ccc(Cl)cc2)C(=O)c2ccc(Br)cc2)cc1 [Example 225]
IC50 [1, 2]: 1 to 10 µM | IC50 (DU145 (prostate cancer); [2]): 10 to 25 µM

CCN(CC)CCNC(=O)c1c(C)[nH]c(/C=C(/SCc2ccc(Br)cc2)C(=O)c2ccc(C(=O)O)cc2)c1C [Example 163]
IC50 [1, 2]: 50 to 100 µM | IC50 (DU145 (prostate cancer); [2]): 50 to 100 µM

Cc1ccc(SC(=Cc2c[nH]c3ccccc23)C(=O)c2ccc(Br)cc2)cc1 [Example 80]
IC50 [1, 3]: 10 to 25 µM | IC50 (DU145 (prostate cancer); [3]): 10 to 25 µM

O=C(C(=Cc1ccc(Br)c(O)c1)Sc1ccc(Br)cc1)c1ccc(Br)cc1 [Example 32]
IC50 [1, 3]: 1 to 10 µM | IC50 (DU145 (prostate cancer); [3]): 1 to 10 µM

O=C(C(=Cc1ccc(O)c([N+](=O)[O-])c1)Sc1c(F)c(F)c(F)c(F)c1F)c1ccc(Br)cc1 [Example 2]
IC50 [1, 3]: 10 to 25 µM | IC50 (DU145 (prostate cancer); [3]): 10 to 25 µM

O=C(C(=Cc1ccccc1O)Sc1ccccc1Br)c1ccc(Br)cc1 [Example 8]
IC50 [1, 3]: 50 to 100 µM | IC50 (DU145 (prostate cancer); [3]): 50 to 100 µM

O=C(C(=Cc1ccc(Oc2ccccc2)cc1)Sc1ccc(Br)cc1)c1ccc(Br)cc1 [Example 50]
IC50 [1, 3]: 50 to 100 µM | IC50 (DU145 (prostate cancer); [3]): 50 to 100 µM

O=C(C(=Cc1ccc(O)cc1O)SCc1ccc(Cl)cc1)c1ccc(Cl)cc1 [Example 196]
IC50 [1, 2]: 50 to 100 µM | IC50 (DU145 (prostate cancer); [2]): 50 to 100 µM

O=C(C(=Cc1ccc(O)cc1)SCc1ccc(Cl)cc1)c1ccc(Cl)cc1 [Example 222]
IC50 [1, 2]: 1 to 10 µM | IC50 (DU145 (prostate cancer); [2]): 10 to 25 µM

O=C(C(=Cc1ccccc1OCc1ccccc1)SCc1ccc(Cl)c(Cl)c1)c1ccc(Cl)cc1 [Example 139]
IC50 [1, 2]: 10 to 25 µM | IC50 (DU145 (prostate cancer); [2]): 10 to 25 µM
